PMC10135378, “Synthesis of Novel N-Heterocyclic Carbene-Ruthenium (II) Complexes, “Precious” Tools with Antibacterial, Anticancer and Antioxidant Properties” (Antibiotics, 2023)

Assays:
[1] = tested on: MCF-7 cells; experiment: MTT assay, anticancer activity on MCF-7 cells; type: cell-based, human; conditions: 72 h exposure, 0.1-100 µM
Experimental: (§1) The anticancer activity of all the synthesized Ru-NHC complexes (RANHC I-VI) was studied in two human breast cancer cell lines, namely the estrogen receptor positive (ER+) MCF-7 cells and the triple negative MDA-MB-231 cells (ER-, PR-, and HER-2/Neu not overexpressed), and neuroblastoma cells, i.e., SH-SY5Y. First, the cells were exposed for 72 h at different concentrations of the studied complexes (from 0.1 to 100 µM) and then their viability was checked by MTT assay.
(§2) The adopted cells (breast cancer MCF-7 and MDA-MB-231 and human mammary epithelial MCF-10A cells) were purchased from American Type Culture Collection (ATCC, Manassas, VA, USA) and cultured as indicated. The mouse embryonic fibroblast BALB/3T3 and neuroblastoma SH-SY5Y were also obtained from American Type Culture Collection (ATCC, Manassas, VA, USA) and cultured in DMEM high glucose supplemented with 100 U mL^−1 penicillin/streptomycin and 10% bovine calf serum (BCS) or 10% fetal bovine serum (FBS), respectively.
(§3) MTT assay (Sigma Aldrich (St. Louis, MO, USA)) was used for the in vitro anticancer activity evaluation, as previously reported. The Ru-NHC complexes were employed at different concentrations (0.1–1–10–25–50–100 μM) for 72 h. The IC50 values were calculated from the percent (%) of control using GraphPad Prism 9 (GraphPad Software, La Jolla, CA, USA).

[2] = tested on: MDA-MB-231 cells; experiment: MTT assay, anticancer activity on MDA-MB-231 cells; type: cell-based, human; conditions: for IC50: MTT, 72 h exposure, 0.1-100 µM; for fold more active against MDA-MB-231 than MCF-10A cells: ratio of IC50 values MCF-10A / MDA-MB-231
Experimental: as §1, §2, §3

[3] = Conductivity measurements (hydrolytic stability); type: physicochemical; conditions: DMSO/H2O 90/10, solutions about 10^−3 M, room temperature
Experimental: The proposed structures and hydrolytic stability were supported by conductivity measurements (solutions about 10^−3 M); in fact, the conductance values for the Ru compounds I, IV, V, and VI determined in DMSO/H2O 90/10 are substantially independent of the concentration, which is close to zero. […] This was attributed to the presence of a small amount of sodium iodide in the sample (about 10 mol%).
The NMR spectra were recorded on a Bruker AM 250 spectrometer (250 MHz for ^1H; 62.5 MHz for ^13C), a Bruker AM 300 spectrometer (300 MHz for ^1H; 75 MHz for ^13C), and a Bruker AVANCE 400 spectrometer (400 MHz for ^1H; 100 MHz for ^13C; 161.97 MHz for ^31P; 376 MHz for ^19F). NMR samples were prepared by solubilizing about 15 mg of compound in 0.5 mL of deuterated solvent. The ^1H and ^13C NMR chemical shifts are referenced to SiMe4 (δ = 0 ppm) using the residual proton impurities of the deuterated solvents as internal standards. ^1H NMR spectra are referenced using the residual solvent peak δ 2.50 for DMSO-d6 and δ 7.27 for CDCl3. ^13C NMR spectra are referenced using the residual solvent peak at δ 39.51 for DMSO-d6 and δ 77.23 for CDCl3. Multiplicities are abbreviated as follows: singlet (s), doublet (d), triplet (t), multiplet (m), doublet of doublets (dd), broad (br), and overlapped (o). Elemental analysis was conducted using a PERKIN-Elmer 240-C analyzer. ESI-MS measurements were performed on a Waters Quattro Micro triple quadrupole mass spectrometer, equipped with an electrospray ion source. MALDI-MS mass spectra were achieved by a Bruker SolariX XR Fourier transform ion cyclotron resonance mass spectrometer (Bruker Daltonik GmbH, Bremen, Germany) with a 7 T refrigerated actively shielded superconducting magnet (Bruker Biospin, Wissembourg, France). MALDI ion source (Bruker Daltonik GmbH, Bremen, Germany) was used in the samples in positive ion mode. The mass range was set to m/z 200–3000. The laser power was 28% and 22 laser shots were utilized for each scan. The mass spectra were calibrated externally using a mix of peptide clusters in MALDI ionization positive ion mode. A linear calibration was applied. The molar conductance of the ruthenium complexes was measured at room temperature by a Metrohm 712 Conductometer using freshly prepared 10^−3 M solutions in DMSO/H2O 90/10 solvent.

[4] = ABTS radical scavenging assay; conditions: for IC50: 5 min, room temperature, 730 nm
Source text: To further analyze the Ru-NHC complexes antiradical potential, we examined their capability to interfere with the ABTS radical cation, a well-known protonated radical with a characteristic maximal absorbance at 730 nm, which diminishes with the scavenging of the radical proton. The assay measures radical scavenging by the electron donation. The outcomes in terms of ABTS% scavenging activity are reported in Figure 7 and IC50 values of Ru-NHC complexes, together with the standard Trolox, on ABTS radical are summarized in Table 3 and Table S3.
The radical scavenging properties of the Ru-NHC complexes on a 2,2′-azino-bis(3-ethylbenzothiazoline-6-sulfonate) radical cation (ABTS^•+) were calculated as described by Fazio et al., with few adjustments. Briefly, 2 mM ABTS and 70 mM potassium persulfate water solutions were mixed and incubated to obtain ABTS^•+ radical stock solution (16 h, room temperature, in the dark). ABTS solution was diluted in ethanol to obtain an absorbance of 0.70 ± 0.02 at 730 nm, prior to use. Then, 2 μL of each Ru-NHC complex at different concentrations, properly dissolved in DMSO, were mixed with 198 μL of the ABTS^•+ solution in a 48-well plate obtaining the following concentrations: 0.1, 1, 10, 50, and 100 µg/mL. The solutions were vigorously shaken and incubated (5 min, room temperature, in the dark). The ABTS scavenging activity was determined at 730 nm, using a microplate reader. The control was prepared mixing 2 μL of DMSO with 198 μL of the ABTS^•+ solution. The ABTS radical scavenging was expressed as inhibition percentages (%IABTS) of each complex compared to the control, according to the formula: %IABTS=A0−A/A0×100 where A0 is the absorbance at 730 nm of the control reaction and A is the absorbance at 730 nm in the presence of samples.
IC50 values for the Ru complexes were calculated from the %IABTS using GraphPad Prism 9 software (GraphPad Inc., San Diego, CA, USA). Trolox was employed as the positive control.

[5] = tested on: SH-SY5Y cells; experiment: MTT assay, anticancer activity on SH-SY5Y neuroblastoma cells; type: cell-based; conditions: 72 h exposure, 0.1-100 µM
Experimental: as §1, §2, §3

[6] = tested on: BALB/3T3 cells; experiment: MTT assay, non-tumoral BALB/3T3 fibroblasts; type: cell-based; conditions: 72 h exposure, non-tumoral mouse embryonic fibroblasts
Source text: Additionally, we investigated the selectivity of all the synthesized Ru-NHC complexes on the cancer cells by studying their capability to interfere with the growth of two non-tumoral cells, namely the MCF-10A and BALB/3T3 cells.
as §2, §3

| IC50 [1] [µM] | IC50 [2] [µM] | conductivity [3] | IC50 [4] [µM] | IC50 [5] [µM] | ABTS IC50 fold lower than that of Trolox ([4]; IC50 ratio to Trolox) | Structure (SMILES) | IC50 [6] [µM] | fold more active against MDA-MB-231 than MCF-10A cells [2] |
| --- | --- | --- | --- | --- | --- | --- | --- | --- |
| > 100 | > 100 | close to zero | 8.57 ± 1.1 | 88.9 ± 0.9 |  | COC(Cn1ccn(C)[c]1=[Ru]1[O]C(=O)C(=O)[O]1)c1ccccc1.Cc1ccc(C(C)C)cc1 (stereo not drawn) [RANHC-IV] | > 100 |  |
| > 100 | > 100 | close to zero | 13.5 ± 0.7 | 90 ± 1.2 |  | COC(Cn1ccn(C)[c]1=[Ru]([Cl])[Cl])c1ccccc1.Cc1ccc(C(C)C)cc1 (stereo not drawn) [RANHC-I] | > 100 |  |
| > 100 | > 100 | 6.3–25.6 μS cm^−1 | 5.53 ± 1.1 | > 100 | about 17 fold | CN1C=CN2CC(c3ccccc3)[O+](C)[Ru]([Cl])=[C]12.Cc1ccc(C(C)C)cc1.F[P-](F)(F)(F)(F)F (stereo not drawn) [RANHC-III] | > 100 |  |
| > 100 | > 100 | 13.1–44.2 μS cm^−1 | 16.1 ± 0.7 | > 100 |  | COC(Cn1ccn(C)[c]1=[Ru]([I])[I])c1ccccc1.Cc1ccc(C(C)C)cc1 (stereo not drawn) [RANHC-II] | > 100 |  |
| 54.8 ± 1.1 | 40.6 ± 1.1 | close to zero | 17.2 ± 1.1 | 66.9 ± 0.8 |  | COC(Cn1[c](=[Ru]([Cl])[Cl])n(C)c2ccccc21)c1ccccc1.Cc1ccc(C(C)C)cc1 (stereo not drawn) [RANHC-VI] | 39.1 ± 1.1 | 2.2 fold |
| 26.1 ± 0.9 | 24.1 ± 0.7 | close to zero | 11.4 ± 0.8 | 48.4 ± 0.8 |  | COC(Cn1c(Cl)c(Cl)n(C)[c]1=[Ru]([Cl])[Cl])c1ccccc1.Cc1ccc(C(C)C)cc1 (stereo not drawn) [RANHC-V] | > 100 | about 3.3 fold |
